Patent US8058451B2, “Hydroxycucurbituril derivatives, their preparation methods and uses” (Postech Foundation, priority 2002, dated 2011)
One block for each substance: values may come before it.

Assays:
[1] = Host-guest complex formation with cyclopentane in D2O; format: binding; conditions: 6.6 mg host, 10 μL cyclopentane, 0.5 mL D2O
Method: 6.6 mg of hydroxycucurbit[6]uril (CB[6]^OH) prepared in Synthesis Example 1 and 10 μL of cyclopentane were dissolved in 0.5 mL of D2O.

[2] = Host-guest complex formation with acetylcholine chloride in D2O; format: binding; conditions: 6.6 mg host, 2.0 mg acetylcholine chloride, 0.5 mL D2O
Method: To investigate whether the hydroxycucurbituril derivatives prepared in Synthesis Example 1 can effectively transport physiologically active materials or drugs, the following example was carried out using acetylcholine chloride as a neurotransmitter.

[3] = Host-guest complex formation with isobutene gas in D2O; format: binding; conditions: 6.6 mg host in 0.5 mL D2O, isobutene gas injected
[4] = Host-guest complex formation with p-toluidine hydrochloride in D2O; format: binding; conditions: 6.6 mg host, 1.5 mg p-toluidine hydrochloride, 0.5 mL D2O
Method: 6.6 mg of hydroxycucurbit[6]uril (CB[6]^OH) prepared in Synthesis Example 1 and 1.5 mg of p-toluidine hydrochloride were dissolved in 0.5 mL of D2O.

[5] = Host-guest complex formation with 1,4-phenylindiamine in D2O; format: binding; conditions: 6.6 mg host, 1.2 mg 1,4-phenylindiamine, 0.5 mL D2O
Method: 6.6 mg of hydroxycucurbit[6]uril (CB[6]^OH) prepared in Synthesis Example 1 and 1.2 mg of 1,4-phenylindiamine were dissolved in 0.5 mL of D2O.

[6] = Host-guest complex formation with p-toluidine in D2O; format: binding; conditions: 6.6 mg host, 1.2 mg p-toluidine, 0.5 mL D2O
Method: 6.6 mg of hydroxycucurbit[6]uril (CB[6]^OH) prepared in Synthesis Example 1 and 1.2 mg of p-toluidine were dissolved in 0.5 mL of D2O.

[7] = Host-guest complex formation with tetrahydrofuran in D2O; format: binding; conditions: 6.6 mg host, 10 μL tetrahydrofuran, 0.5 mL D2O
Method: 6.6 mg of hydroxycucurbit[6]uril (CB[6]^OH) prepared in Synthesis Example 1 and 10 μL of tetrahydrofuran were dissolved in 0.5 mL of D2O.

[8] = Ion selective electrode, potential differences on adding lead ions; conditions: 1 mM Mg(OAc)2-HCl buffered solution pH 4; lead ions 10^-6 M to 10^-3 M
Method: A solution obtained by dissolving 1% by weight of CB[5]^OH prepared in Synthesis Example 2 in 0.1 mL of methanol, 33% by weight of polyvinylchloride used as a polymer support, 65.6% by weight of 2-nitrophenyloctylether used as a plasticizer and 0.4 mL of tetrahydrofuran dissolved in 0.4% by weight of potassium tetrakis(4-chlorophenyl)borate, were homogenously mixed, followed by slowly removing the solvent, to form an ion selective membrane. An ion selective electrode was fabricated with this ion selective membrane. An electrode with a silver wire coated with silver chloride in a 0.05 M aqueous KCl solution was used as a reference electrode.
The reference electrode and the ion selective electrode were immersed in 250 mL of 1 mM Mg(OAc)2—HCl buffered solution (pH=4), followed by continuously stirring for at least 1 hour until a membrane boundary potential was stabilized. Thereafter, potential differences were measured with adding lead ions to increase the concentration by 10 fold in the range of 10^−6 M to 10^−3 M using a micropipet at an interval of 100 seconds

[9] = Binding constant measurement by microcalorimeter (VP-ITC) with KCl solution; conditions: 0.05 M Tris-buffered solution pH 7.2; 5.5 mM host, 110 mM KCl
Method: Since the hydroxycucurbituril derivatives obtained in Synthesis Example 1 have Lewis base atoms near the cavities of the molecule, they can effectively form a complex with metal ions or positively charged organic compounds. With these features, in order to investigate whether the hydroxycucurbituril derivatives having this property can be applied in manufacturing sensors for sensing metal ions or ammonium ions, the following example was carried out.
A 0.05 M Tris-buffered solution of pH 7.2 was prepared, and then a 5.5 mM hydroxycucurbit[5]uril (CB[5]^OH) solution prepared in Synthesis Example 2 and 110 mM of a KCl solution were prepared. Then, the binding constants of the cucurbit[5]uril derivative was measured using a microcalorimeter (VP-ITC, manufactured by MicroCal).

[10] = Binding of ammonium ions in organic solvent (CD3CN); conditions: 5.5 mg host, 6.7 mg (NH4)+(BPh4)-, 0.5 mL CD3CN
Method: To investigate whether ammonium ions present in an organic solvent can bind with CB[5]^OH, the following example was carried out.
5.5 mg of CB[5]^OH prepared in Synthesis Example 2 and 6.7 mg of (NH4)^+(BPh4)^− were dissolved in 0.5 mL CD3CN. Then, ammonium ions in (NH4)^+(BPh4)^− could bind with CB[5]^OH in an acetonitrile solution.

[11] = Ion selective electrode responses to ammonium, potassium, sodium, choline and acetylcholine ions
Method: 1% by weight of allyoxycucurbit[6]uril prepared in Synthesis Example 8, 33% by weight of polyvinylchloride and 66% by weight of 2-nitrophenyloctylether were dissolved in THF to form a membrane. With this membrane, an ion selective electrode was fabricated. Then, the responses of the electrode with respect to ammonium ion, potassium ion, sodium ion, choline ion and acetylcholine ion were measured in a 0.01M Tris-buffered solution. As a result, the selectivity of choline with respect to acetylcholine was −1.84, ammonium ion −1.31, potassium ion −0.90 and sodium ion −1.16, respectively. The allyloxycurcubit[6]uril according to the present invention can be advantageously used in clinical analysis by selective detection of a neurotransmitter in vivo, e.g., acetylcholine, instead of choline which is a major obstacle in analyzing acetylcholine. The ion selective electrode using allyoxycucurbit[6]uril can be used in measuring acetylcholine in a concentration range of 2.1×10^−6 M.

Substance: hydroxycucurbit[6]uril [CB[6]^OH]
host-guest complex formation with cyclopentane [1]: Quantitative formation of a 1:1 host-guest complex
host-guest complex formation with acetylcholine chloride [2]: forming a 1:1 host-guest complex
host-guest complex formation with isobutene gas [3]: forming a 1:1 host-guest complex
host-guest complex formation with p-toluidine hydrochloride [4]: Quantitative formation of a 1:1 host-guest complex
host-guest complex formation with 1,4-phenylindiamine [5]: Quantitative formation of a 1:1 host-guest complex
host-guest complex formation with p-toluidine [6]: Quantitative formation of a 1:1 host-guest complex
host-guest complex formation with tetrahydrofuran [7]: Quantitative formation of a 1:1 host-guest complex

binding of ammonium ions of (NH4)+(BPh4)- in acetonitrile solution [10]: could bind
Substance: hydroxycucurbit[5]uril [CB[5]^OH]
ion selective electrode detection of heavy metal ions (lead) [8]: could be used in detecting harmful heavy metal ions remaining in water
binding with alkali metal ions and ammonium ions (microcalorimeter) [9]: could selectively bind with alkali metal ions, as well as with ammonium ions

Substance: Allyloxycucurbit[6]uril [allyoxycucurbit[6]uril]
concentration range in which acetylcholine can be measured [11]: 2.1 µM
